The assay addresses T1, transforming growth factor-β receptor type-I (TGF-β RI) (Homo sapiens, UniProt P36897).
T1 sequence (P36897 34-503): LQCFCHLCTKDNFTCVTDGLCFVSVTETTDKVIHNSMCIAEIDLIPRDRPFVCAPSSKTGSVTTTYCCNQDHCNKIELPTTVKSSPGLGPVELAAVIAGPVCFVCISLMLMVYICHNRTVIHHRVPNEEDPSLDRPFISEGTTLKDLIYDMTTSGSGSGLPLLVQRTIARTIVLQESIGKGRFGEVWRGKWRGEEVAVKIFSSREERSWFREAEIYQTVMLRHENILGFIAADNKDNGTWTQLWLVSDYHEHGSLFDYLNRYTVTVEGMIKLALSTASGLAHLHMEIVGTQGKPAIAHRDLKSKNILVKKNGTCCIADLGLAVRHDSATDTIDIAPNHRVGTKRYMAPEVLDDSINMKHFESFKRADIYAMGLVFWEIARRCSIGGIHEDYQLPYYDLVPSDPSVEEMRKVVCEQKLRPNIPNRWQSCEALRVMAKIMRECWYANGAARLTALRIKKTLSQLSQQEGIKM
The format is biochemical.

Each structure is given as a SMILES string.

Data on one molecule can be found in paper PMC9805938 (Journal of Pharmaceutical Analysis, 2020).

As usually defined, the IC50 is the concentration that gives 50% inhibition. A high value points to weaker potency in that assay.

Molecule `Oc1ccc(/C=C/c2cc(O)cc(O)c2)cc1` [compound 12, Resveratrol] showed a half-inhibitory concentration (IC50) of 2210 ± 266 nM.
